Experimental findings from ChEMBL document CHEMBL4049398, “Microscale High-Throughput Experimentation as an Enabling Technology in Drug Discovery: Application in the Discovery of (Piperidinyl)pyridinyl-1H-benzimidazole Diacylglycerol Acyltransferase 1 Inhibitors” (J Med Chem, 2017) are described below.

In one data set the target is Cytochrome P450 3A4 (Homo sapiens, UniProt P08684). Description: Inhibition of CYP3A4 (unknown origin). Format: ADME.
Data set [1] can be described thus: Solubility of the compound at pH 2. The class given is physicochemical. The following applies: buffer, read-out: solubility.
A short description of data set [2]: Solubility of the compound at pH 7. Format: physicochemical. The settings on record: buffer, read-out: solubility.
Data set [3] addresses T1, Nuclear receptor subfamily 1 group I member 2 (Homo sapiens, UniProt O75469).
T1 sequence (O75469 whole entry): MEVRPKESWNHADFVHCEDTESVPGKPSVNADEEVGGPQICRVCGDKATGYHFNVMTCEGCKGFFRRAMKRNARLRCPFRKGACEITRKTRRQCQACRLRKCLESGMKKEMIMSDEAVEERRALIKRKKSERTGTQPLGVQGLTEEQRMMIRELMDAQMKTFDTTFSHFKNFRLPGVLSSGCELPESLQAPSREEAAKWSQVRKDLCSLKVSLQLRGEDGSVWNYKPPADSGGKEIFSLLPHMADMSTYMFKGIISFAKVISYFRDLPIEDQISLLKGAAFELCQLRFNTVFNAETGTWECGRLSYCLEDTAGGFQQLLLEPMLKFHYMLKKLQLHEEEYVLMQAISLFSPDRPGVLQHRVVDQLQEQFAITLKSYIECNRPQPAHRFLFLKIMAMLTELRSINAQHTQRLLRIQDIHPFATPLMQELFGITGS
The data set is described as follows: Inhibition of PXR (unknown origin). Format: ADME.

The next data set addresses Cytochrome P450 2C9 (Homo sapiens, UniProt P11712). The data set is described as follows: Inhibition of CYP2C9 (unknown origin). Format: ADME.
Data set [4] can be described thus: Lipophilicity, log D of the compound. The following applies: octanol/water; read-out: logD. The class given is physicochemical.
Data set [5] addresses T2, Diacylglycerol O-acyltransferase 1 (Mus musculus, UniProt Q9Z2A7).
T2 sequence (Q9Z2A7 whole entry): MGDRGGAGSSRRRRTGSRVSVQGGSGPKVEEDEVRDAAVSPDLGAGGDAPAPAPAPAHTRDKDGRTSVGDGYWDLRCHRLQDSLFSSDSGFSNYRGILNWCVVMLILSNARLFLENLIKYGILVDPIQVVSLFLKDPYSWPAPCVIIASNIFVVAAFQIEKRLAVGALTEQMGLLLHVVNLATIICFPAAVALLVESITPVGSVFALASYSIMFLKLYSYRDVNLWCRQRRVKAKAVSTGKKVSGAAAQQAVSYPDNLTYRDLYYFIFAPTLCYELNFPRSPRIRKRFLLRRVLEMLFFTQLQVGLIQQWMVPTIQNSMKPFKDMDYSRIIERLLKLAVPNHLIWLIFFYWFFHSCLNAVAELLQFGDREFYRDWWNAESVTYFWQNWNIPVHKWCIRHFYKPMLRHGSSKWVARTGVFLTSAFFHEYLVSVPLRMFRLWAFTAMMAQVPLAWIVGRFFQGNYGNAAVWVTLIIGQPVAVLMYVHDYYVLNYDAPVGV
The data set is described as follows: Inhibition of mouse DGAT1 assessed as inhibition of triglyceride formation.

The structures appear in SMILES notation. ≈ marks a conversion by molar mass, not a printed value.

Chain of Cytochrome P450 3A4 (P08684 whole entry): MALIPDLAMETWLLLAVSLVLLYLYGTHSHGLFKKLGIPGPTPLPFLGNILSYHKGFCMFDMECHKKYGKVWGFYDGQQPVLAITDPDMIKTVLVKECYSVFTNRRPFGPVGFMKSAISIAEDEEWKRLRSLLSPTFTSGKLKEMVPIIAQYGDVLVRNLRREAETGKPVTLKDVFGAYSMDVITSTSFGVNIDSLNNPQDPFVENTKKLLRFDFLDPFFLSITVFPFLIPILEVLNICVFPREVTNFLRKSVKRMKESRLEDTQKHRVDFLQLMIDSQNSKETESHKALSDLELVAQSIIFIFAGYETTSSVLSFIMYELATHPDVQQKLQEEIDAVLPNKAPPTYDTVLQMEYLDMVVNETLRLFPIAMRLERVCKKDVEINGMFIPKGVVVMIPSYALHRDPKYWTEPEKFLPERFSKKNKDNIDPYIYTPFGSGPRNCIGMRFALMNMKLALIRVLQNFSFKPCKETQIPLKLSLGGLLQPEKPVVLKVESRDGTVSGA
Chain of Cytochrome P450 2C9 (P11712 whole entry): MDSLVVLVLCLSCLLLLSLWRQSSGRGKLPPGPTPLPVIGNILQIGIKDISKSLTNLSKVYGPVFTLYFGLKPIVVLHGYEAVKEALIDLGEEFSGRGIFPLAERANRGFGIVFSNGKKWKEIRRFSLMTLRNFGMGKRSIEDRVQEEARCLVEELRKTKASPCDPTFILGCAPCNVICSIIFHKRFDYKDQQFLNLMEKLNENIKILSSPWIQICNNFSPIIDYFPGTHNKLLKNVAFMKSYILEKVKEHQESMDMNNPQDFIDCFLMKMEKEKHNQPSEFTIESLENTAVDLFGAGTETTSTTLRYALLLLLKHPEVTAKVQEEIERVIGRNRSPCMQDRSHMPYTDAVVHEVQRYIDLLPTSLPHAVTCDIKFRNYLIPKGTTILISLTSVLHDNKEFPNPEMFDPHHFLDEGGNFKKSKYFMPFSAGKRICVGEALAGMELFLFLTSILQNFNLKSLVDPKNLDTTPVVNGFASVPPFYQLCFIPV

On to `O=C(O)CC1COC2(CCN(c3ccc(-c4nc5cc(C(F)(F)F)ccc5[nH]4)cn3)CC2)C1` (racemic), for which the IC50 is > 50 µM at Cytochrome P450 3A4, > 30 µM in data set [3], > 50 µM against Cytochrome P450 2C9 and 0.178 µM in data set [5]. Further, the solubility in data set [1] worked out at 170 µM (≈ 78.3 µg/mL); in data set [2] it was 182 µM (≈ 83.8 µg/mL). In addition, in data set [4], the logD was 1.51.
